The test system of one assay is Aspc-1 cells. Description: Cell proliferation study in Aspc-1 cells (Cell Titer Glo). In kind it is cell-based. The conditions noted are these: Homo sapiens, ASPC1, 72 hours, read-out: IC50, inhibitory effect on cellular proliferation. The procedure: Aspc-1 (Cobioer, CBP60546) cells were grown in RPMI 1640 (Gibco, 61870127) supplemented with 10% fetal bovine serum (Gibco, 10099141), 1% penicillin-streptomycin (Gibco, 15070-063). Aspc-1 cells in exponential growth phase were seeded into 96-well plate (Corning, 3599) at density of 4×10^3/well. Cells were cultured overnight at 37° C. with 5% CO2. On the next day, cells were treated with test compound at various concentrations for 72 hours in 37° C., 5% CO2 incubator (final DMSO concentration was 0.1%). After treatment, 100 μL Cell Tier Glo (Promega, G7573) was added to every well of the cell plates and the plates were incubated at room temperature (RT) for 10 minutes. Cell growth status was measured with Cell Tier Glo (Promega, G7573) following the manufacturer's instructions. The inhibition curve was obtained with GraphPad 7.0 software using four-parameter equation.
For orientation: ATP-based viability assays read luminescence as a measure of living cells.

Another assay has as its target T1, KRAS-G12D protein (Homo sapiens, UniProt P01116, G12D).
T1 construct: host or cells: Aspc-1 cells
Description: KRAS-G12D protein degradation study in Aspc-1 cells (western blot). In kind it is cell-based. The conditions noted are these: for inhibition at 1 µM / inhibition at 0.1 µM / inhibition at 0.05 µM: ASPC1, 24 h; for inhibition at 1 µM: Aspc-1 cells treated with 1 μM compound; for inhibition at 1 µM / inhibition at 0.1 µM: read-out: Rate of protein degradation (KRAS^G12D); for DC50: Aspc-1 cells, read-out: DC50 of test compound-induced KRAS^G12D protein degradation; for inhibition at 0.05 µM: Aspc-1 cells treated with 50 nM compound, read-out: Rate of degradation (KRAS^G12D). The essentials:
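AsPC-1 cells were treated with compound for 24 h at 37° C (0.1% DMSO final), then lysed; KRAS levels measured by western blot. Degradation % = 1 − (KRAS/GAPDH, compound) ÷ (KRAS/GAPDH, DMSO), ×100; DC50 derived from concentration curves.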
In general terms: Immunoblotting shows a protein as a band on a membrane.

Where [1] appears, read: Aspc-1 cells treated with 0.1 μM compound, 24 hours.

The structures appear in SMILES notation.

T1 sequence (P01116 1-188 isoform P01116-2 G12D): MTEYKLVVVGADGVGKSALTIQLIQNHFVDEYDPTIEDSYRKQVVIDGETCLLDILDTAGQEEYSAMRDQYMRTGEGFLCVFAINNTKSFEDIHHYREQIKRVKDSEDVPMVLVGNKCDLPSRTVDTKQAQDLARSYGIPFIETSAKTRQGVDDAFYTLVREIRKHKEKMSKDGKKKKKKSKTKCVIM

`C#Cc1c(F)ccc2cc(O)cc(-c3ncc4c(N5CC6CCC(C5)N6)nc(OC5CCN(CCCCCCCCCC(=O)N[C@H](C(=O)N6C[C@H](O)C[C@H]6C(=O)NCc6ccc(-c7scnc7C)cc6)C(C)(C)C)CC5)nc4c3F)c12` [Compound 41]: in the assay on Aspc-1 cells, the IC50 was 101 to 1000 nM. Also, the inhibition at 1 µM on KRAS-G12D protein (24 hours) is > 60%.

On to `C#Cc1c(F)ccc2cc(O)cc(-c3ncc4c(N5CC6CCC(C5)N6)nc(OC5CCN(CCCCCCCCCCC(=O)N[C@H](C(=O)N6C[C@H](O)C[C@H]6C(=O)NCc6ccc(-c7scnc7C)cc6)C(C)(C)C)CC5)nc4c3F)c12` [Compound 43], for which, in the assay with Aspc-1 cells, the IC50 was in the range of 101 to 1000 nM. On KRAS-G12D protein (24 hours), the inhibition at 1 µM was > 60%.

With `CCc1c(F)ccc2cc(O)cc(-c3ncc4c(N5CC6CCC(C5)N6)nc(OC5CCN(CCCCCCCCCCC(=O)N[C@H](C(=O)N6C[C@H](O)C[C@H]6C(=O)NCc6ccc(-c7scnc7C)cc6)C(C)(C)C)CC5)nc4c3F)c12` [Compound 44], the IC50 in the assay on Aspc-1 cells fell in the range of 1000 to 5000 nM. The inhibition at 1 µM at KRAS-G12D protein (24 hours) is 31 to 60%.

For `C#Cc1c(F)ccc2cc(O)cc(-c3ncc4c(N5CC6CCC(C5)N6)nc(OC5CCN(CCCCCCCCCCC(=O)N[C@H](C(=O)N6C[C@H](O)C[C@H]6C(=O)N[C@@H](C)c6ccc(-c7scnc7C)cc6)C(C)(C)C)CC5)nc4c3F)c12` [Compound 45], the IC50 in the assay with Aspc-1 cells was 101 to 1000 nM. In addition, the inhibition at 0.1 µM at KRAS-G12D protein (setting [1]) lay in the range of 31 to 60%. Besides, the inhibition at 1 µM on KRAS-G12D protein (24 hours) is > 60%.

With `C#Cc1c(F)ccc2cc(O)cc(-c3ncc4c(N5CC6CCC(C5)N6)nc(OC5CCN(CCCCCCCCCCCC(=O)N[C@H](C(=O)N6C[C@H](O)C[C@H]6C(=O)NCc6ccc(-c7scnc7C)cc6)C(C)(C)C)CC5)nc4c3F)c12` [Compound 46], the IC50 with Aspc-1 cells was 101 to 1000 nM. In addition, on KRAS-G12D protein (24 hours), the inhibition at 1 µM is > 60%.

For the compound `C#Cc1c(F)ccc2cc(O)cc(-c3ncc4c(N5CC6CCC(C5)N6)nc(OC5CCN(CCCCCCCCCCCCCC(=O)N[C@H](C(=O)N6C[C@H](O)C[C@H]6C(=O)NCc6ccc(-c7scnc7C)cc6)C(C)(C)C)CC5)nc4c3F)c12` [Compound 47], the IC50 in the assay with Aspc-1 cells is 1000 to 5000 nM. Also, the inhibition at 1 µM on KRAS-G12D protein (24 hours) was in the range of 31 to 60%.

Take `C#Cc1c(F)ccc2cc(O)cc(-c3ncc4c(N5CC6CCC(C5)N6)nc(OC5CCN(CCCCCCCCCC(=O)N6CCC(c7ccc8c(C9CCC(=O)NC9=O)nn(C)c8c7)CC6)CC5)nc4c3F)c12` (stereo not drawn) [Compound 50]: the IC50 with Aspc-1 cells was 1000 to 5000 nM. The inhibition at 1 µM at KRAS-G12D protein (24 hours) lay in the range of 11 to 30%.

`C#Cc1c(F)ccc2cc(O)cc(-c3ncc4c(N5CC6CCC(C5)N6)nc(OC5CCN(CC(=O)N6CCC7(CC6)CC(N6CCC(c8ccc9c(C%10CCC(=O)NC%10=O)nn(C)c9c8)CC6)C7)CC5)nc4c3F)c12` (stereo not drawn) [Compound 82]: the IC50 in the assay with Aspc-1 cells was in the range of 1000 to 5000 nM. Also, at KRAS-G12D protein (setting [1]), the inhibition at 0.1 µM was > 60%. On KRAS-G12D protein, the DC50 was < 10 nM.

As to `C#Cc1c(F)ccc2cc(O)cc(-c3ncc4c(N5CC6CCC(C5)N6)nc(OCC5(CN6CCN(C(=O)CN7CCC(c8ccc9c(C%10CCC(=O)NC%10=O)nn(C)c9c8)CC7)CC6)CC5)nc4c3F)c12` (stereo not drawn) [Compound 92], the IC50 in the assay on Aspc-1 cells is < 100 nM. On KRAS-G12D protein (setting [1]), the “Rate of protein degradation (KRAS^G12D)” value is reported as “+++ (greater than 60%)”. Also, on KRAS-G12D protein, the DC50 is < 10 nM.

`C#Cc1c(F)ccc2cc(O)cc(-c3ncc4c(N5CC6CCC(C5)N6)nc(OCC5(CN6CCC(C(=O)N7CCC8(CC7)CC(N7CCC(c9ccc%10c(C%11CCC(=O)NC%11=O)nn(C)c%10c9)CC7)C8)CC6)CC5)nc4c3F)c12` (stereo not drawn) [Compound 111]: the IC50 in the assay on Aspc-1 cells is < 100 nM. The inhibition at 0.1 µM on KRAS-G12D protein (setting [1]) was > 60%. In addition, the DC50 on KRAS-G12D protein is < 10 nM.

As for `C#Cc1c(F)ccc2cc(O)cc(-c3ncc4c(N5CC6CCC(C5)N6)nc(OCC5(CN6CCC7(CC6)CC(N6CCC(c8ccc9c(C%10CCC(=O)NC%10=O)nn(C)c9c8)CC6)C7)CC5)nc4c3F)c12` (stereo not drawn) [Compound 112], the IC50 in the assay on Aspc-1 cells is < 100 nM. Further, the inhibition at 0.1 µM at KRAS-G12D protein (setting [1]) was > 60%. In addition, on KRAS-G12D protein, the DC50 is < 10 nM.

For the compound `C#Cc1c(F)ccc2cc(O)cc(-c3ncc4c(N5CC6CCC(C5)N6)nc(OCC5(CN6CCC(C(=O)N7CCC(N8CCC(c9ccc%10c(C%11CCC(=O)NC%11=O)nn(C)c%10c9)CC8)CC7)CC6)CC5)nc4c3F)c12` (stereo not drawn) [Compound 129], the IC50 in the assay on Aspc-1 cells is < 100 nM. Further, the inhibition at 0.05 µM at KRAS-G12D protein (24 hours) was > 60%. On KRAS-G12D protein, the DC50 is < 10 nM.

As for `C#Cc1c(F)ccc2cc(O)cc(-c3ncc4c(N5CC6CCC(C5)N6)nc(OCC5(CN6CCC(CN7CCC(c8ccc9c(C%10CCC(=O)NC%10=O)nn(C)c9c8)CC7)CC6)CC5)nc4c3F)c12` (stereo not drawn) [Compound 133], in the assay on Aspc-1 cells, the IC50 was < 100 nM. Also, the inhibition at 0.05 µM at KRAS-G12D protein (24 hours) is > 60%. Further, the DC50 on KRAS-G12D protein is < 10 nM.

For the compound `C#Cc1c(F)ccc2cc(O)cc(-c3ncc4c(N5CC6CCC(C5)N6)nc(OCC5(CN6CCC(CN7CCN(c8cccc9c8C(=O)N(C8CCC(=O)NC8=O)C9=O)CC7)CC6)CC5)nc4c3F)c12` (stereo not drawn) [Compound 135], the IC50 in the assay with Aspc-1 cells is < 100 nM. In addition, the inhibition at 0.05 µM at KRAS-G12D protein (24 hours) was 31 to 60%. Moreover, the DC50 at KRAS-G12D protein was < 10 nM.

Consider `C#Cc1c(F)ccc2cc(O)cc(-c3ncc4c(N5CC6CCC(C5)N6)nc(OCC5(CN6CCC(CN7CCC(c8ccc9c(c8)CN(C8CCC(=O)NC8=O)C9=O)CC7)CC6)CC5)nc4c3F)c12` (stereo not drawn) [Compound 146], for which the IC50 in the assay on Aspc-1 cells was < 100 nM. The inhibition at 0.05 µM at KRAS-G12D protein (24 hours) was > 60%. On KRAS-G12D protein, the DC50 was < 10 nM.

Regarding `C#Cc1c(F)ccc2cc(O)cc(-c3ncc4c(N5CC6CCC(C5)N6)nc(OCC5(CN6CCC(CCN7CCC(c8ccc9c(C%10CCC(=O)NC%10=O)nn(C)c9c8)CC7)CC6)CC5)nc4c3F)c12` (stereo not drawn) [Compound 149], the IC50 in the assay with Aspc-1 cells was < 100 nM. For the same compound, on KRAS-G12D protein (24 hours), the inhibition at 0.05 µM is > 60%. The DC50 at KRAS-G12D protein was < 10 nM.

As for `C#Cc1c(F)ccc2cc(O)cc(-c3ncc4c(N5CC6CCC(C5)N6)nc(OCC5(CN6CCC7(CC6)CC(N6CCN(c8ccc(NC9CCC(=O)NC9=O)cc8F)CC6)C7)CC5)nc4c3F)c12` (stereo not drawn) [Compound 150], the IC50 with Aspc-1 cells was < 100 nM. Also, the inhibition at 0.05 µM at KRAS-G12D protein (24 hours) was > 60%. Also, the DC50 at KRAS-G12D protein was < 10 nM.

For the compound `C#Cc1c(F)ccc2cc(O)cc(-c3ncc4c(N5CC6CCC(C5)N6)nc(OCC5(CN6CCC7(CC6)CC(N6CCN(c8ccc9c(c8)C(=O)N(C8CCC(=O)NC8=O)C9=O)CC6)C7)CC5)nc4c3F)c12` (stereo not drawn) [Compound 154], in the assay with Aspc-1 cells, the IC50 was < 100 nM. Besides, the inhibition at 0.05 µM at KRAS-G12D protein (24 hours) is > 60%. Also, the DC50 at KRAS-G12D protein is < 10 nM.

As for `C#Cc1c(F)ccc2cc(O)cc(-c3ncc4c(N5CC6CCC(C5)N6)nc(OCC5(CN6CCCN(C(=O)CN7CCC(c8ccc9c(C%10CCC(=O)NC%10=O)nn(C)c9c8)CC7)CC6)CC5)nc4c3F)c12` (stereo not drawn) [Compound 155], in the assay with Aspc-1 cells, the IC50 was < 100 nM. Besides, the inhibition at 0.05 µM on KRAS-G12D protein (24 hours) was > 60%. In addition, the DC50 at KRAS-G12D protein was in the range of 11 to 50 nM.

For the compound `CCc1c(F)ccc2cc(O)cc(-c3ncc4c(N5CC6CCC(C5)N6)nc(OCC5(CN6CCC(C(=O)N7CCC8(CC7)CC(N7CCC(c9ccc%10c(C%11CCC(=O)NC%11=O)nn(C)c%10c9)CC7)C8)CC6)CC5)nc4c3F)c12` (stereo not drawn) [Compound 156], the IC50 with Aspc-1 cells was < 100 nM. Besides, the inhibition at 0.05 µM on KRAS-G12D protein (24 hours) lay in the range of 31 to 60%. The 50% degradation concentration (DC50) on KRAS-G12D protein is < 10 nM.

As for `C#Cc1c(F)ccc2cc(O)cc(-c3ncc4c(N5CC6CCC(C5)N6)nc(OCC5(CN6CCC7(CC6)CC(N6CCC(c8cccc9c8CN(C8CCC(=O)NC8=O)C9=O)CC6)C7)CC5)nc4c3F)c12` (stereo not drawn) [Compound 157], the IC50 with Aspc-1 cells lay in the range of 101 to 1000 nM. Also, the inhibition at 0.05 µM on KRAS-G12D protein (24 hours) lay in the range of 11 to 30%. Further, the DC50 on KRAS-G12D protein is > 200 nM.

Broadly, the DC50 is the concentration at which degradation of the target reaches its halfway point.

The values are drawn from patent US20230321253A1, “BIFUNCTIONAL COMPOUNDS AND PHARMACEUTICAL USES THEREOF” (RISEN (SUZHOU) PHARMA TECH CO., LTD., priority 2022, published 2023).
